Measurements published in patent US20120308537A1, “Use Of Collagen Type VII For Maintaining And Re-Inducing Osteogenic Abilities Of Mesenchymal Stem Cells” (UNIVERSITY OF SOUTHERN CALIFORNIA, priority 2009, published 2012).

Columns and labels:
human MSCs [1] = experiment: Alizarin red (AR) staining of MSCs in osteogenic medium (calcium accumulation and mineralization); type: cell-based
Method: Alizarin red (AR) staining is normally used to determine the calcium accumulation and mineralization that are associated with bone formation. Cells in the tissue culture dishes labeled C7 were incubated with osteogenic induction medium containing 1.0 μg/ml of C7. Cells in the tissue culture dishes labelled OST were incubated with osteogenic induction medium alone (controls).
FIG. 3A is the scanned image of Alizarin red staining (top) and its quantification (bottom).
FIG. 3B is the scanned image of Alizarin red staining (top) and its quantification (bottom). […] The results represent mean values+/−standard deviation from experiments performed in triplicates. Note that MSCs only need to be exposed to 0.6 μg/ml of C7 during days 8-12 to attain optimal osteogenic induction.
For these experiments, plated MSCs were plated at 3×10^5/per well on 6-well plates in MSC growth medium containing α-MEM containing 16.7% Premium FBS (Atlanta Biologicals Cat# S11550), and 2 mM L-Glutamine. After the cells reached 70% confluency, the medium was changed to osteogenic induction medium with or without 0.6 μg/ml C7 added at the time period indicated above.
Here the MSCs were treated with 4 μg/ml of NC1 for 21 days in an osteogenic medium. Results represent mean values+/−standard deviation from experiments performed in triplicates.
(§1) FIG. 9A is a scanned image of Alizarin staining (left) and its quantification (right). Here the MSCs were treated with 1.0 μg/ml C7 or 1.0 μg/ml C7 and 15 μM U0126 in the presence of an osteogenic medium for 21 days. In FIG. 9B, MSCs were cultured as in FIG. 9A. RNAs were collected after 14 days and subjected to RT-PCR analysis for early osteogenic gene markers. Results for staining represent mean values+/−standard deviation from experiments performed in quadruplicate. RT-PCR results represented the mean+/−standard deviation of duplicate experiments with PCR performed in triplicates. The […] inhibitor abolished C7-induced calcium deposition and expression of early osteogenic gene markers.

[2] = tested on: p-ERK (Ras-ERK signaling pathway); experiment: Immunoblot analysis of ERK phosphorylation in MSCs under osteogenic conditions; type: cell-based, human
Method: (§2) In this experiment, cells were serum starved for 48 hours and then stimulated with osteogenic medium in the absence or presence of 1.0 μg/ml C7. Cellular extracts were prepared at the times indicated and then subjected to immunoblot analysis with antibodies shown above. Total ERK and paxillin are included to indicate equal protein loading.
In this experiment, cells were pretreated with the respective inhibitor for 1 hour before addition of 1.0 μg/ml C7. Regular ERK is included as a control for equal protein loading.

[3] = tested on: ALP, Runx2, BSP, OCN mRNA in MSCs; experiment: Real-Time PCR analysis of osteogenic-specific gene expression in MSCs; type: cell-based, human
Method: In this experiment, MSCs were cultured in 6-well plates in growth medium until they reached confluence. Then, they were switched to osteogenic medium. Respective wells were treated with 1.0 μg/ml C7 until the indicated harvest days. Equal amounts of RNA were reverse transcribed and the mRNA levels of the indicated genes were analyzed using SYBR green master mix and primers for alkaline phosphotase (ALP), Runx2, bone sialoprotein (BSP), and osteocalcin (OCN). Data were normalized to house keeping gene GAPDH and expressed as fold-changes relative to 7D untreated cells. Results represent the mean+/−standard deviation of duplicate experiments with PCR performed in triplicates.
as §1

[4] = tested on: ectopic osteogenesis induction; experiment: ALP assay of ectopic osteogenesis induction, intramuscular implantation in rat; type: in vivo; conditions: 4 weeks
Method: (§3) The negative control was carrier only, which consisted of collagen sponge (bovine). The samples were administered to rat via intramuscular implantation on ectopic sites. The experiment lasted for 4 weeks. Two different preparations (C7 and C7′) were tested. The test dosages were: 10, 20 and 40 μg. The results were analyzed by alkaline phosphotase assay (ALP) and histology for bone formation.

[5] = tested on: ectopic osteogenesis induction; experiment: Histology analysis of ectopic osteogenesis induction (bone formation), intramuscular implantation in rat; type: in vivo; conditions: 4 weeks
Method: as §3

late passage MSCs = experiment: Alizarin red staining of late passage MSCs (exogenous C7 or lentiviral C7 over-expression); type: cell-based, human
Method: FIG. 5A is the scanned image of Alizarin red staining (top) and its quantification (bottom). Late passage MSCs (passage 8) were treated with 1.0 μg/ml of C7 in the presence of an osteogenic medium for 21 days.
FIG. 5B is the scanned image of Alizarin red staining (top) and its quantification (bottom). Late passage MSCs infected with lentiviral vectors expressing either green fluorescence protein (GFP) or C7 were subjected to osteogenic medium for 21 days. Results represent mean values+/−standard deviation from experiments performed in triplicates.
For these experiments, MSCs from passage 3 were infected with lentiviral vectors expressing either GFP or C7 and cultured for an additional 7 passages. Then infected MSCs (passage 10) were plated at 6 well-plates and then subjected to osteogenic induction medium.

human MSCs [6] = experiment: Alkaline phosphotase (ALP) staining of MSCs in osteogenic medium; type: cell-based; conditions: 1.0 μg/ml C7, 14 days in osteogenic medium, vs osteogenic medium alone
Method: ALP measures the expression of a key marker enzyme that is needed for bone formation. The tissue culture dishes labeled C7 were treated with 1.0 μg/ml C7 whereas dishes label OST were the controls. The cells were incubated in an osteogenic medium for 14 days.

p-P38 = experiment: Immunoblot analysis of P38 phosphorylation in MSCs under osteogenic conditions; type: cell-based, human; conditions: 1.0 μg/ml C7; serum starved 48 hours
Method: as §2

MSCs = experiment: Inducing and maintaining the osteogenicity of MSCs by C7 fragments (general statement); type: cell-based; conditions: fragments of C7 containing the CMP subdomain
[7] = 1.0 μg/ml C7 and 15 μM U0126, 14 days
[8] = 1.0 μg/ml C7, normalized to GAPDH

**Q.** For N#CC(=C(/N)Sc1ccccc1N)/C(C#N)=C(\N)Sc1ccccc1N [U0126, reference compound], which “AR staining of C7-treated MSCs (C7-mediated osteogenic induction)” value (human MSCs [1]; 1.0 μg/ml C7 and 15 μM U0126, 21 days) is on record?
**A.** The value was “reduced”.

**Q.** What about the “effect of inhibitor on C7-mediated induction of p-ERK” value ([2]; pretreated with inhibitor 1 hour before 1.0 μg/ml C7, proteins collected after 1 hour) of the same compound?
**A.** Its value is “Abrogated”.

**Q.** What about the “mRNA expression of ALP in C7-treated MSCs” value [3, 7] of the same compound?
**A.** Its value is “reduced”.

**Q.** What about the “mRNA expression of BSP in C7-treated MSCs” value [3, 7] of the same compound?
**A.** The value was “reduced”.

**Q.** Which ALP ([4]; 10 ug C7 or C7′ + 1 ug BMP-2) does the source give for type VII collagen [C7] here?
**A.** Its ALP is 0.257.

**Q.** And the ALP/Pro ([4]; 10 ug C7 or C7′ + 1 ug BMP-2)?
**A.** Its ALP/Pro is 2.360.

**Q.** And the ALP/Pro ([4]; 10 ug C7 or C7′, no BMP-2)?
**A.** The ALP/Pro was 0.517.

**Q.** What about the ALP ([4]; 10 ug C7 or C7′, no BMP-2, collagen sponge, intramuscular ectopic site) of the same compound?
**A.** The ALP was 0.094.

**Q.** And the ALP ([4]; 20 ug C7 or C7′ + 1 ug BMP-2)?
**A.** Its ALP is 0.384.

**Q.** What about the ALP/Pro ([4]; 20 ug C7 or C7′ + 1 ug BMP-2) of the same compound?
**A.** Its ALP/Pro is 1.893.

**Q.** What about the ALP ([4]; 20 ug C7 or C7′, no BMP-2) of the same compound?
**A.** Its ALP is 0.094.

**Q.** And the ALP/Pro ([4]; 20 ug C7 or C7′, no BMP-2)?
**A.** The ALP/Pro was 0.500.

**Q.** What about the ALP ([4]; 40 ug C7 or C7′, no BMP-2) of the same compound?
**A.** The ALP was 0.092.

**Q.** And the ALP/Pro ([4]; 40 ug C7 or C7′, no BMP-2)?
**A.** Its ALP/Pro is 0.364.

**Q.** And the Bone score ([5]; 10 ug C7 or C7′ + 1 ug BMP-2)?
**A.** Its Bone score is 3.

**Q.** What about the Bone score ([5]; 10 ug C7 or C7′, no BMP-2) of the same compound?
**A.** The Bone score was 0.

**Q.** What about the Bone score ([5]; 20 ug C7 or C7′ + 1 ug BMP-2) of the same compound?
**A.** Its Bone score is 0.

**Q.** And the Bone score ([5]; 20 ug C7 or C7′, no BMP-2)?
**A.** The Bone score was 0.

**Q.** What about the Bone score ([5]; 40 ug C7 or C7′, no BMP-2) of the same compound?
**A.** Its Bone score is 0.

**Q.** What about the “BMP-2-mediated bone induction (ALP assay and histology)” value ([5]; low dosage 10 μg with BMP-2, rat intramuscular implantation) of the same compound?
**A.** The value was “significantly enhance”.

**Q.** What about the “osteogenic potential of human MSCs as measured by Alizarin red activity” value (human MSCs [1]; 1.0 μg/ml C7, 21 days in osteogenic medium, vs osteogenic medium alone) of the same compound?
**A.** The value was “significantly enhances”.

**Q.** And the “concentration needed to attain optimal osteogenic induction” value (human MSCs [1]; exposure during days 8-12 only, osteogenic medium 21 days)?
**A.** The value was 0.6 µg/mL.

**Q.** And the “restoring osteogenic potential of late passage MSCs (Alizarin red)” value (late passage MSCs; exogenous addition, 1.0 μg/ml C7, passage 8, 21 days)?
**A.** The value was “capable of restoring”.

**Q.** What about the “restoring osteogenic potential of late passage MSCs (Alizarin red)” value (late passage MSCs; over-expression by lentiviral vector vs GFP, passage 10, 21 days) of the same compound?
**A.** The value was “capable of restoring”.

**Q.** And the “osteogenic potential of human MSCs as measured by ALP activity” value (human MSCs [6])?
**A.** Its value is “significantly enhances”.

**Q.** And the “level of p-P38” value (p-P38)?
**A.** Its value is “remained unchanged”.

**Q.** What about the “effectiveness in inducing and maintaining the osteogenicity of MSCs” value (MSCs) of the same compound?
**A.** The value was “relatively effective”.

**Q.** What about the “production of p-ERK” value ([2]; 1.0 μg/ml C7, as early as 10 minutes, sustained up to 1 hour, serum starved 48 hours) of the same compound?
**A.** Its value is “increased”.

**Q.** What about the “ALP mRNA expression (early osteogenic marker)” value [3, 8] of the same compound?
**A.** Its value is “upregulates”.

**Q.** And the “BSP mRNA expression (early osteogenic marker)” value [3, 8]?
**A.** Its value is “upregulates”.

**Q.** And the “OCN mRNA expression (late osteogenic marker)” value [3, 8]?
**A.** The value was “upregulates”.

**Q.** What about the “Runx2 mRNA expression (early osteogenic marker)” value [3, 8] of the same compound?
**A.** Its value is “upregulates”.
